Measured values from patent US20230265435A1, “COMPOSITION COMPRISING OSTEOPONTIN INHIBITOR AS ACTIVE INGREDIENT FOR PREVENTION, ALLEVIATION, OR TREATMENT OF NEURODEGENERATIVE DISEASE” (THE CATHOLIC UNIVERSITY OF KOREA INDUSTRY-ACADEMIC …, priority 2020, published 2023).

System: neural stem cells
Assay: Amyloid beta toxicity, MTT assay, OPN antagonist treatment
Assay type: cell-based
Protocol: Next, to confirm the function of the OPN protein for amyloid beta neurotoxicity, the inventors confirmed the level of amyloid beta toxicity according to the treatment of an OPN antagonist or OPN siRNA using neuronal cells.
Specifically, approximately 5×10^4 neural stem cells were seeded in a 24-well plate, and cultured at 37° C. in a CO2 incubator for 24 hours. The medium in the cell-containing plate was replaced with an antibiotic-free, 0.1% serum-containing medium, treated with 0.5 μM levocetirizine (Sigma-Aldrich, L7795, OPN antagonist), and after 6 to 7 hours, the cells were further treated with 3 μM amyloid beta, and after 48 hours of culture, cell viability was confirmed through an MTT assay.

| Substance | cell viability (neural stem cells treated with 3 μM amyloid beta alone) | amyloid beta toxicity (0.5 μM levocetirizine with 3 μM amyloid beta, 48 hours) |
| --- | --- | --- |
| amyloid beta | approximately 60% | – |
| levocetirizine | – | greatly decreased |
